Source: article PMC6272903, “Synthesis and Structure-Activity Relationship Analysis of 5-HT7 Receptor Antagonists: Piperazin-1-yl Substituted Unfused Heterobiaryls” (Molecules, 2016)
Several values for one entry are separate records, joined by “and”; a condition that tells them apart may be missing. Identical values can stand only once. Counter-ions that a name gives are not always drawn. Blank lines part the entries; values can stand above or below the molecule they belong to.

Tests used:
[1] = target: T1, 5-HT1A (Homo sapiens, UniProt P08908); assay: 5-HT1A competition binding assay ([3H]-8-OH-DPAT); settings: HEK293 cells with overexpressed receptor, read-out: Ki ± S.D. 5-HT1A
T1 construct: expressed in transfected cells; host or cells: HEK293
T1 sequence (P08908 1-422): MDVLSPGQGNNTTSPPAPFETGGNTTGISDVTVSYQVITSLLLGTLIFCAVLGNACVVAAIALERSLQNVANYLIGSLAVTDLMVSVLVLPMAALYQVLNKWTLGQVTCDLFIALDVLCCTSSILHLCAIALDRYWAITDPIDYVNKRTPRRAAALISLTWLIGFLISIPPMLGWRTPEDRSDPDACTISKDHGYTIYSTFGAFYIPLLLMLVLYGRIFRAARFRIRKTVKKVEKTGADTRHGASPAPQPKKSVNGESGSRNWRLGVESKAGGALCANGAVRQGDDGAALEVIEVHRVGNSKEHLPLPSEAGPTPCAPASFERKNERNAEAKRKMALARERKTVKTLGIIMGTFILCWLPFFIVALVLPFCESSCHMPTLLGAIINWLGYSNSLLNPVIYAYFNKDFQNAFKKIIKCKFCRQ

[2] = target: T2, dopaminergic D2 (Homo sapiens, UniProt P14416); assay: D2 competition binding assay ([3H]-Raclopride); settings: for Ki: [3H]-Raclopride, HEK293 cells with overexpressed receptor, read-out: Ki ± S.D. D2
T2 construct: expressed in transfected cells; host or cells: HEK293

[3] = target: T3, 5-HT6 (Homo sapiens, UniProt P50406); assay: 5-HT6 competition binding assay ([3H]-LSD); settings: for Ki: [3H]-LSD, HEK293 cells with overexpressed receptor, read-out: Ki ± S.D. 5-HT6
T3 construct: expressed in transfected cells; host or cells: HEK293

[4] = target: T4, human 5-HT7b receptors (Homo sapiens, UniProt P34969); assay: 5-HT7 competition radioligand binding assay ([3H]5-CT); settings: HEK293 cells overexpressing human 5-HT7b receptors, at least two independent experiments in triplicate; for Ki: read-out: Ki ± S.D. 5-HT7 binding affinity
T4 construct: expressed in transfected cells; host or cells: HEK293
Method: Novel scaffold endowed with 5-HT7R activity was identified by screening of the in-house compound library in a single compound concentration of 1 µM in a competition radioligand binding assay using [^3H]5-CT and HEK293 cells overexpressing the human 5-HT7b receptors.

[5] = target: T5, 5-HT2A (Homo sapiens, UniProt P28223); assay: 5-HT2A competition binding assay ([3H]-Ketanserin); settings: CHO cells with overexpressed receptor, read-out: Ki ± S.D. 5-HT2A
T5 construct: expressed in transfected cells; host or cells: CHO

[6] = target: T6, 5-HT7R (Homo sapiens, UniProt P34969); assay: cAMP functional test: inhibition of cAMP production induced by 5-CT (10 nM); type: cell-based; settings: for Kb: cAMP production induced by 5-CT (10 nM), HEK-293 cells expressing 5-HT7R, read-out: KB (5-HT7R antagonistic properties); for effect on 5-CT-induced cAMP accumulation: transfected HEK cells expressing 5-HT7R, 5-CT (10 nM)
T6 construct: expressed in transfected cells; host or cells: HEK293
T6 sequence (P34969 1-432): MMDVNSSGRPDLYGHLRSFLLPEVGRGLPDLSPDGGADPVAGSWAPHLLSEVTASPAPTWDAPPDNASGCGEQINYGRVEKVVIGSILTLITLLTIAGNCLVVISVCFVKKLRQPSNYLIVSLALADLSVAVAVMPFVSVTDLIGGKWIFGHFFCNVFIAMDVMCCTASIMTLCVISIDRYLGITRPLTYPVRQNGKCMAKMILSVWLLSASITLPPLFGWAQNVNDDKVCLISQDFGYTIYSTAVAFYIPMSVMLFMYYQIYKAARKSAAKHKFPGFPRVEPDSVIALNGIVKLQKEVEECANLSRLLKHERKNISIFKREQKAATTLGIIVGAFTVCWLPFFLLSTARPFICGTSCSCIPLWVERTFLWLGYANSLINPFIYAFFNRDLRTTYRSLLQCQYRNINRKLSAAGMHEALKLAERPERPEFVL

T2 sequence (P14416 whole entry): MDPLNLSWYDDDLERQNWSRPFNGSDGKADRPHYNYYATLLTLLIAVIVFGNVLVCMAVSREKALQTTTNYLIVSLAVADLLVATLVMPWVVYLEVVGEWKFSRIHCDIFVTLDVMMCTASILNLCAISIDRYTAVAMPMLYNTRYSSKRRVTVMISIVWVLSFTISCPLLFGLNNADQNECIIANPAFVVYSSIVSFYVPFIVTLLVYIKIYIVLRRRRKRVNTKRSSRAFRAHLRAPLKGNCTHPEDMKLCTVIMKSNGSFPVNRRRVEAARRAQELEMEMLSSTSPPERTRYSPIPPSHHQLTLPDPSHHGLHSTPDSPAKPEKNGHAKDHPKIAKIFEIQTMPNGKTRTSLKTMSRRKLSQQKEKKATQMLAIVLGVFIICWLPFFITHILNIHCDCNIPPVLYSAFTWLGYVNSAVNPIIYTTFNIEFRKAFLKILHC
T3 sequence (P50406 whole entry, species assumed): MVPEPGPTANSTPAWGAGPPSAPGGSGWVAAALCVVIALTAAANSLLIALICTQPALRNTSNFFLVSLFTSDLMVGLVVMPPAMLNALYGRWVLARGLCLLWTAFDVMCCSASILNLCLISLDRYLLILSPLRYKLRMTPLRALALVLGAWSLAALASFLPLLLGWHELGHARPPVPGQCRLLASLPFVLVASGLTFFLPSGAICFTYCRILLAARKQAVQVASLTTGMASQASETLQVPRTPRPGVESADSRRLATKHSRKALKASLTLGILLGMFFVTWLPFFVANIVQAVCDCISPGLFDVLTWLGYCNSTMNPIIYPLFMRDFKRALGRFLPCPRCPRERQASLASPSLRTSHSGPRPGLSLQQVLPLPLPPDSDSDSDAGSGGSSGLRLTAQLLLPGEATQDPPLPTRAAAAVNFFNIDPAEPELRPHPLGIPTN
T5 sequence (P28223 whole entry, species assumed): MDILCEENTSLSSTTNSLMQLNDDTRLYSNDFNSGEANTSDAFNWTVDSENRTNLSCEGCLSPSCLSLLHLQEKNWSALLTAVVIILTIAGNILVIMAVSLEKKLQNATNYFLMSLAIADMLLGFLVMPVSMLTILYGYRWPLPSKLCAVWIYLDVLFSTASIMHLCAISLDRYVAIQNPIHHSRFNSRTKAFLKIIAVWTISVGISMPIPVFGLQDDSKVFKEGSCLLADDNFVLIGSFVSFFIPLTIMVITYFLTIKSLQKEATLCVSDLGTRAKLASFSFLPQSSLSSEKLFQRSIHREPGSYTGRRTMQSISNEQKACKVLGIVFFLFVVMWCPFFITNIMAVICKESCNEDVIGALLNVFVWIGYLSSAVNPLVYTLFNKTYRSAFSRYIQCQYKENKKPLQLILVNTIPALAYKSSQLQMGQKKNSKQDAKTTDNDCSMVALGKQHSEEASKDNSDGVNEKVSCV
T4 sequence (P34969 1-432): as the sequence (P34969 1-432) above

melting point: 299 to 300 °C
Structure (SMILES): CN1CCN(c2nccc(-c3cc4ccccc4s3)n2)CC1 (as salt: hydrobromid) [Compound 37, 4-(Benzothiophen-2-yl)-2-(4-methylpiperazin-1-yl)pyrimidine]

melting point: 176 to 177 °C
Structure (SMILES): CN1CCCN(c2nccc(-c3ccoc3)n2)CC1 (as salt: hydrobromid) [Compound 42, 4-(3-Furyl)-2-(4-methylhomopiperazin-1-yl)pyrimidine]

melting point: 190 to 191 °C
Structure (SMILES): c1cc(-c2ccoc2)nc(N2CCCCC2)n1 (as salt: hydrobromid) [Compound 43, 4-(3-Furyl)-2-(piperidin-1-yl)pyrimidine]

melting point: 234 to 236 °C
Structure (SMILES): c1cc(-c2ccoc2)nc(NCCCc2ncc[nH]2)n1 (as salt: hydrobromid) [Compound 46, 4-(3-Furyl)-N-[3-(1H-imidazol-2-yl)propyl]pyrimidin-2-amine]

melting point: 132 to 134 °C
Structure (SMILES): Cc1cc(-c2cccs2)cc(N2CCN(C)CC2)n1 (as salt: hydrobromid) [Compound 56, 2-Methyl-6-(4-methylpiperazin-1-yl)-4-(2-thienyl)pyridine]

melting point: > 300 °C
Structure (SMILES): CN1CCN(c2nc(-c3ccoc3)cc(C(F)(F)F)n2)CC1 (as salt: hydrochloride) [Compound 16, 4-(3-Furyl)-2-(4-methylpiperazin-1-yl)-6-(trifluoromethyl)pyrimidine]

melting point: > 200 °C (dec.)
Structure (SMILES): c1cc(-c2ccoc2)nc(N2CC[N+]3(CCOCC3)CC2)n1 (as salt: iodide) [Compound 47, 4-[4-(3-Furyl)pyrimidin-2-yl]piperazine-1-spiro-1-morpholinium iodide]

Ki [1]: 1500 ± 164 nM
Ki [2]: 466 ± 39 nM
Ki [3]: 121 ± 14 nM
Ki [4]: 7.1 ± 1.4 nM
Ki [5]: 10 nM and 12 nM
Kb [6]: 12 nM
effect on 5-CT-induced cAMP accumulation [6]: dose-dependently decrease
Structure (SMILES): CCc1cc(-c2ccoc2)nc(N2CCN(C)CC2)n1 [Compound 12, 4-Ethyl-6-(3-furyl)-2-(4-methylpiperazin-1-yl)pyrimidine]

Ki [1]: 637 ± 53 nM
fold more active than 12 at D2 receptors ([2]; 13 versus 12): 13 fold
Ki [2]: 37 ± 4 nM
fold more active than 12 at 5-HT6 ([3]; 13 versus 12): 10 fold
Ki [3]: 12 ± 2 nM
Ki [4]: 1.6 ± 0.2 nM
Ki [5]: 12 nM and 10 nM
Kb [6]: 60 nM
effect on 5-CT-induced cAMP accumulation [6]: dose-dependently decrease
Structure (SMILES): CCCCc1cc(-c2ccoc2)nc(N2CCN(C)CC2)n1 [Compound 13, 4-(n-Butyl)-6-(3-furyl)-2-(4-methylpiperazin-1-yl)pyrimidine]

melting point: 58 to 59 °C
Ki ± S.D. 5-HT7 binding affinity [4]: no affinity
Ki [4]: > 10000 nM
Structure (SMILES): c1cc(-c2ccoc2)nc(N2CCOCC2)n1 [Compound 44]

effect on 5-CT-induced cAMP accumulation [6]: dose-dependently decrease
Structure (SMILES): CC1CCN(CC[C@H]2CCCN2S(=O)(=O)c2cccc(O)c2)CC1 [SB-269970, (2R)-1-((3-hydroxyphenyl)sulfonyl)-2-(2-(4-methyl-1-piperidinyl)ethyl)pyrrolidine, reference compound]
